# Reference: PubChem BioAssay AID328 (DTP/NCI, 2004)
# Where “and” joins values, the source holds several entries; their conditions need not be identical. Equal entries are not always repeated. Inconclusive results and toxic doses are left out.
# Test system: BDF1 mice, P388 leukemia ip, median survival T/C
# Experiment: NCI In Vivo Anticancer Drug Screen. Data for tumor model P388 Leukemia (intraperitoneal) in B6D2F1 (BDF1) mice
# Details: endpoint: median survival time, higher = longer survival
# How it was run: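 Steps: implant the tumour, treat one group with compound and another with vehicle, record survival, then divide treated by control.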
# [1] = dose: 25.0 mg/kg/injection, schedule: Q01DX009 (ip), vehicle: saline with Tween-80
# [2] = dose: 100.0 mg/kg/injection, schedule: Q01DX009 (ip), vehicle: saline with Tween-80
# [3] = dose: 200.0 mg/kg/injection, schedule: Q01DX009 (ip), vehicle: saline with Tween-80
# [4] = dose: 400.0 mg/kg/injection, schedule: Q04DX003 (ip), vehicle: saline with Tween-80
# [5] = dose: 50.0 mg/kg/injection, schedule: Q01DX009 (ip), vehicle: saline with Tween-80
# [6] = dose: 100.0 mg/kg/injection, schedule: Q01DX009 (ip), vehicle: saline
# [7] = dose: 100.0 mg/kg/injection, schedule: Q04DX003 (ip), vehicle: saline
# [8] = dose: 200.0 mg/kg/injection, schedule: Q01DX009 (ip), vehicle: saline
# [9] = dose: 400.0 mg/kg/injection, schedule: Q01DX009 (ip), vehicle: saline
smiles,measurement,setting,value
CN(Cc1cnc2nc(N)nc(N)c2n1)c1ccc(C(=O)N[C@@H](CCC(=O)O)C(=O)O)cc1,T/C,"dose: 0.37 mg/kg/injection, schedule: Q01DX009 (ip), vehicle: sodium bicarbonate",172 % of control
same,T/C,"dose: 0.38 mg/kg/injection, schedule: Q01DX009 (ip), vehicle: saline",150 % of control and 155 % of control
same,T/C,"dose: 0.5 mg/kg/injection, schedule: Q01DX005 (ip), vehicle: saline with Tween-80",113 % of control
same,T/C,"dose: 0.5 mg/kg/injection, schedule: Q01DX005 (ip), vehicle: saline",184 % of control
same,T/C,"dose: 0.5 mg/kg/injection, schedule: Q01DX009 (ip), vehicle: saline with Tween-80",163 % of control
same,T/C,"dose: 0.5 mg/kg/injection, schedule: Q01DX009 (ip), vehicle: sodium bicarbonate",176 % of control
same,T/C,"dose: 0.5 mg/kg/injection, schedule: Q01DX010 (ip), vehicle: other",245 % of control
same,T/C,"dose: 0.75 mg/kg/injection, schedule: Q01DX009 (ip), vehicle: saline",190 % of control and 195 % of control
same,T/C,"dose: 0.75 mg/kg/injection, schedule: Q01DX009 (ip), vehicle: sodium bicarbonate",209 % of control
same,T/C,"dose: 0.9 mg/kg/injection, schedule: Q01DX009 (ip), vehicle: sodium bicarbonate",171 % of control and 190 % of control and 203 % of control
same,T/C,"dose: 1.0 mg/kg/injection, schedule: Q01DX005 (ip), vehicle: saline with Tween-80",104 % of control
same,T/C,"dose: 1.0 mg/kg/injection, schedule: Q01DX005 (ip), vehicle: saline",194 % of control
same,T/C,"dose: 1.0 mg/kg/injection, schedule: Q01DX009 (ip), vehicle: saline with Tween-80",181 % of control
same,T/C,"dose: 1.0 mg/kg/injection, schedule: Q01DX009 (ip), vehicle: sodium bicarbonate",236 % of control and 150 % of control and 181 % of control
same,T/C,"dose: 1.0 mg/kg/injection, schedule: Q01DX010 (ip), vehicle: other",300 % of control
same,T/C,"dose: 1.3 mg/kg/injection, schedule: Q01DX009 (ip), vehicle: sodium bicarbonate",228 % of control and 179 % of control and 205 % of control
same,T/C,"dose: 1.5 mg/kg/injection, schedule: Q01DX009 (ip), vehicle: saline",229 % of control and 222 % of control
same,T/C,"dose: 2.0 mg/kg/injection, schedule: Q01DX009 (ip), vehicle: saline with Tween-80",222 % of control
same,T/C,"dose: 2.25 mg/kg/injection, schedule: Q01DX009 (ip), vehicle: sodium bicarbonate",231 % of control
same,T/C,"dose: 2.3 mg/kg/injection, schedule: Q01DX009 (ip), vehicle: sodium bicarbonate",227 % of control and 239 % of control and 263 % of control
same,T/C,"dose: 3.0 mg/kg/injection, schedule: Q01DX009 (ip), vehicle: saline",231 % of control and 236 % of control
same,T/C,"dose: 3.0 mg/kg/injection, schedule: Q01DX009 (ip), vehicle: sodium bicarbonate",95 % of control and 100 % of control
same,T/C,"dose: 3.5 mg/kg/injection, schedule: Q01DX009 (ip), vehicle: sodium bicarbonate",241 % of control and 244 % of control and 104 % of control
same,T/C,"dose: 8.64 mg/kg/injection, schedule: Q04DX003 (ip), vehicle: sodium bicarbonate",182 % of control
same,T/C,"dose: 10.0 mg/kg/injection, schedule: Q04DX004 (ip), vehicle: sodium bicarbonate",243 % of control
same,T/C,"dose: 14.4 mg/kg/injection, schedule: Q04DX003 (ip), vehicle: sodium bicarbonate",199 % of control
same,T/C,"dose: 15.0 mg/kg/injection, schedule: Q04DX004 (ip), vehicle: sodium bicarbonate",250 % of control
same,T/C,"dose: 20.0 mg/kg/injection, schedule: Q04DX003 (ip), vehicle: sodium bicarbonate",221 % of control
same,T/C,"dose: 20.0 mg/kg/injection, schedule: Q04DX004 (ip), vehicle: sodium bicarbonate",248 % of control
same,T/C,"dose: 24.0 mg/kg/injection, schedule: Q04DX003 (ip), vehicle: sodium bicarbonate",202 % of control
same,T/C,"dose: 25.0 mg/kg/injection, schedule: Q04DX003 (ip), vehicle: sodium bicarbonate",292 % of control
same,T/C,"dose: 25.0 mg/kg/injection, schedule: Q04DX004 (ip), vehicle: sodium bicarbonate",248 % of control
same,T/C,"dose: 30.0 mg/kg/injection, schedule: Q04DX003 (ip), vehicle: sodium bicarbonate",238 % of control
same,T/C,"dose: 40.0 mg/kg/injection, schedule: Q04DX003 (ip), vehicle: sodium bicarbonate",237 % of control
CC(=O)Nc1ccc(S(=O)(=O)Nc2ccc([N+](=O)[O-])cc2)cc1,T/C,[1],104 % of control
same,T/C,"dose: 50.0 mg/kg/injection, schedule: Q01DX009 (ip), vehicle: water",95 % of control
same,T/C,[2],97 % of control
same,T/C,[3],97 % of control
same,T/C,"dose: 400.0 mg/kg/injection, schedule: Q01DX009 (ip), vehicle: saline with Tween-80",106 % of control
Cc1cc(N(CCCl)CCCl)ccc1C=Nc1ccc(F)cc1,T/C,[4],150 % of control
same,T/C,"dose: 600.0 mg/kg/injection, schedule: Q04DX003 (ip), vehicle: saline with Tween-80",179 % of control
COC(=O)C(=O)[C@@H](O)[C@H](O)[C@@H](O)CO,T/C,"dose: 100.0 mg/kg/injection, schedule: Q01DX009 (ip), vehicle: Klucel (hydroxypropylcellulose) (HPC)",100 % of control
same,T/C,"dose: 200.0 mg/kg/injection, schedule: Q01DX009 (ip), vehicle: Klucel (hydroxypropylcellulose) (HPC)",113 % of control
same,T/C,"dose: 400.0 mg/kg/injection, schedule: Q01DX009 (ip), vehicle: Klucel (hydroxypropylcellulose) (HPC)",109 % of control
c1ccc(CCNCc2ccccc2)cc1,T/C,[1],100 % of control
same,T/C,[5],100 % of control
same,T/C,[2],100 % of control
CC1CN(Cc2ccccc2O)CC(C)N1 (centres undefined),T/C,"dose: 6.25 mg/kg/injection, schedule: Q04DX003 (ip), vehicle: water",103 % of control
same,T/C,"dose: 12.5 mg/kg/injection, schedule: Q04DX003 (ip), vehicle: water",103 % of control
same,T/C,"dose: 25.0 mg/kg/injection, schedule: Q04DX003 (ip), vehicle: water",103 % of control
same,T/C,"dose: 50.0 mg/kg/injection, schedule: Q04DX003 (ip), vehicle: water",109 % of control
same,T/C,"dose: 100.0 mg/kg/injection, schedule: Q04DX003 (ip), vehicle: water",97 % of control
NNC(=O)c1ccccn1,T/C,"dose: 25.0 mg/kg/injection, schedule: Q01DX009 (ip), vehicle: saline",92 % of control
same,T/C,"dose: 50.0 mg/kg/injection, schedule: Q01DX009 (ip), vehicle: saline",100 % of control
same,T/C,[6],100 % of control
same,T/C,[7],88 % of control
Nc1nc(=S)c2ncn(C3OC(CO)C(O)C3O)c2[nH]1 (centres undefined),T/C,"dose: 1.0 mg/kg/injection, schedule: Q01DX010 (ip), vehicle: saline",118 % of control
same,T/C,"dose: 2.0 mg/kg/injection, schedule: Q01DX010 (ip), vehicle: saline",118 % of control
same,T/C,"dose: 4.0 mg/kg/injection, schedule: Q01DX010 (ip), vehicle: saline",100 % of control and 109 % of control
same,T/C,"dose: 8.0 mg/kg/injection, schedule: Q01DX010 (ip), vehicle: saline",90 % of control and 100 % of control
same,T/C,"dose: 50.0 mg/kg/injection, schedule: Q04DX003 (ip), vehicle: saline",118 % of control
same,T/C,"dose: 132.0 mg/kg/injection, schedule: Q04DX003 (ip), vehicle: saline with Tween-80",122 % of control
same,T/C,[8],117 % of control
same,T/C,"dose: 300.0 mg/kg/injection, schedule: Q04DX003 (ip), vehicle: saline with Tween-80",122 % of control
same,T/C,[9],111 % of control
CNCCNC,T/C,"dose: 50.0 mg/kg/injection, schedule: Q01DX005 (ip), vehicle: saline",100 % of control
same,T/C,"dose: 100.0 mg/kg/injection, schedule: Q01DX005 (ip), vehicle: saline",98 % of control
same,T/C,"dose: 200.0 mg/kg/injection, schedule: Q01DX005 (ip), vehicle: saline",95 % of control
S=c1nc[nH]c2nc[nH]c12.[Ag],T/C,[6],100 % of control
same,T/C,[8],108 % of control
same,T/C,[9],87 % of control
COc1ccc(CC(=O)N2CCc3cc(OC)c(OC)cc3C2O)cc1OC (centres undefined),T/C,"dose: 12.5 mg/kg/injection, schedule: Q01DX009 (ip), vehicle: saline with Tween-80",101 % of control
same,T/C,[1],89 % of control
same,T/C,[5],94 % of control
same,T/C,[2],114 % of control
OCCN(CCO)c1cc(/C=C/c2ccnc3ccccc23)nc2ccccc12,T/C,[5],89 % of control
same,T/C,[2],89 % of control
same,T/C,[3],91 % of control
CCOC(=O)C(=CN1CCCC1)C(=O)OCC,T/C,"dose: 100.0 mg/kg/injection, schedule: Q04DX003 (ip), vehicle: saline with Tween-80",100 % of control
same,T/C,"dose: 200.0 mg/kg/injection, schedule: Q04DX003 (ip), vehicle: saline with Tween-80",100 % of control
same,T/C,[4],109 % of control
Nc1cc2ccncc2c2sc3ccccc3c12,T/C,[7],104 % of control
same,T/C,"dose: 200.0 mg/kg/injection, schedule: Q04DX003 (ip), vehicle: saline",97 % of control
same,T/C,"dose: 400.0 mg/kg/injection, schedule: Q04DX003 (ip), vehicle: saline",106 % of control
